From publication PMC10535842, “Novel Thiazole-Based SIRT2 Inhibitors Discovered via Molecular Modelling Studies and Enzymatic Assays” (Pharmaceuticals, 2023)
Entries after “also recorded” stand apart in the source; their conditions may differ.

Tests used:
SIRT2 = settings: HPLC assay, H3K9Ac; read-out: SIRT2 IC50 (series C, compounds 112-116); cited from earlier work
recombinant SIRT2 = target: T1, recombinant SIRT2 (Homo sapiens, UniProt Q8IXJ6); test: SIRT2 deacetylase activity, recombinant SIRT2 incubated with acetylated peptide H3K9Ac and NAD+; format: biochemical; settings: recombinant protein
T1 sequence (Q8IXJ6 1-389): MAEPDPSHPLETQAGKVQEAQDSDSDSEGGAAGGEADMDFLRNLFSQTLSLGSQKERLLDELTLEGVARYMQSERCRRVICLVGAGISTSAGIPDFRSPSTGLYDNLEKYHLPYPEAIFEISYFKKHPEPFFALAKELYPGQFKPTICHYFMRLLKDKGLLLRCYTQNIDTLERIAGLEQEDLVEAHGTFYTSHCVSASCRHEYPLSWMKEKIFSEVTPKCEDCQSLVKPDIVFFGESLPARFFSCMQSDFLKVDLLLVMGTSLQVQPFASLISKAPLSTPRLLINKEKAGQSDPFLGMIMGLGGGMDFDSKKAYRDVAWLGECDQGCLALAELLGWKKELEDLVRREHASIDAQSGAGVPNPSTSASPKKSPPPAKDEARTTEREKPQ
Description: The effect of the in silico screened compounds on the SIRT2 deacetylase activity was evaluated thanks to the incubation of recombinant SIRT2 with an acetylated peptide (H3K9Ac, a peptide acetylated on Lys 9) and NAD^+.

recombinant human HSP70 = target: T2, recombinant human HSP70 (Homo sapiens, UniProt P0DMV8); test: HSP70 ATPase catalytic activity, Malachite green assay; format: biochemical; settings: 300 μM final concentration; read-out: percentage of inhibition of HSP70 ATPase activity
T2 construct: made in house; host or cells: E. coli BL21 (DE3)
Description: The impact of selected molecules on the ATPase catalytic activity of an in-house produced recombinant human HSP70 protein was determined using the Malachite green assay, incubating the recombinant protein with ATP in the presence or absence of different compounds (300 μM final concentration). The percentage of inhibition exerted by the selected compounds on the ATPase activity was as follow: 1a, 49 ± 2%; 2a, 40 ± 1%; 3a, 44 ± 4%; 4a, 20 ± 1%; 5a, 19 ± 1%; 6a, 37 ± 1%; 7a, 47 ± 1%.
The recombinant human Hsp70 protein was produced in BL21 (DE3) E. coli transformed with the pET-6xHis/hHSP70 plasmid containing the coding sequence for human HSP70 (hHSPA1A gene, NM_005345.6; purchased from Vector Builder, Vector ID VB210930). This vector allowed for producing an N-terminal 6xHis tag fusion HSP70 protein.
BL21 cells containing the vector were initially grown in Luria−Bertani medium at 37 °C (Merck, Milan, Italy) with 200 μg/mL ampicillin until the culture reached an OD600 of 0.5. The 6xHis/hHSP70 fusion protein was expressed by adding isopropyl-β-d-thiogalactopyranoside (final concentration of 0.2 mM) and incubating the bacteria culture at 37 °C for 2 h. The cells were harvested by centrifugation and then lysed by sonication in 20 mM Tris-HCl, 250 mM KCl, and 10 mM MgCl2 pH 7.4; after the addition of Triton X-100 to a final concentration of 1% and incubation for 30 min at 4 °C, the lysates were centrifugated at 10,000× g for 15 min. The HSP70 protein was purified by affinity chromatography using His GraviTrap TALON columns (Euroclone, Milan, Italy). Briefly, after loading the lysate, the resin was washed twice with 20 mM Tris-HCl, 250 mM KCl, and 10 mM MgCl2 pH 7.4 and twice with the same buffer containing 10 mM of imidazole. The elution of the recombinant protein was obtained with 150 mM imidazole, pH 7.4. Imidazole was removed from the recombinant protein through overnight dialysis using a dialysis tubing membrane (Merck KGaA, Frankfurter Strasse 250 Darmstadt, Germany) and the protein was concentrated using a Centricon (Merck Millipore, 11 Avenida Norte Bis No. 513, San Salvador, El Salvador). The protein concentrations were determined using the Bradford assay (Bio-Rad Laboratories, Inc. Italy, Segrate) and the protein purity was monitored using SDS-PAGE.
The ATPase catalytic activity of recombinant human HSP70 was measured with a colorimetric assay using the malachite green reagent. Briefly, 6 µM of HSP70 protein was incubated for 30 min at 37 °C with 5 mM ATP in 20 mM Tris-HCl, 250 mM KCl, 10 mM MgCl2, and 0.02%TritonX-100, pH 7.4. The released phosphates were quantified by adding the malachite green reagent to an aliquot of this incubation and the absorbance was recorded at 620 nm using a Clariostar plate reader. The effects of thiazoles-based molecules on the ATPase catalytic activity were measured by adding (or not) the different molecules to the incubation (at 300 µM final concentration). To correct for non-enzymatic hydrolysis of ATP and for a specific absorbance of molecules, the absorbance signal of identically treated samples lacking the HSP70 protein was subtracted.

SIRT6 = SIRT6 (Homo sapiens, UniProt Q8N6T7); test: SIRT6 deacetylase and depalmitoylase activity (H3K9Ac / H3K9Palm peptides); format: biochemical
Description: The synthesis of peptides H3K9Ac and H3K9Palm and the evaluation of the SIRT2 deacetylase activity and of the SIRT6 deacetylase and depalmitoylase activity were carried out as previously described. The IC50 of compound 1a was determined as in [43].

[1] = tested on: SIRT2 activity (acetylation status of α-tubulin); test: α-tubulin acetylation in cultured CFBE41o- cells (immunoblotting); format: cell-based, human; settings: 10 μM
Description: Finally, experiments were performed to determine whether compound 1a was active in intact cells. The acetylation status of α-tubulin, a known target of SIRT2 deacetylase activity, was used to monitor SIRT2 activity in human cells.
The cells were incubated with 10 μM of compound 1a or the respective amount of vehicle DMSO, and were used for protein lysate generation; then, the total and acetylated α-tubulin levels were detected by Immunoblotting. The levels of acetylated α-tubulin were quantified, normalized to the total α-tubulin, and expressed as percentage increase vs. vehicle-treated cells. One representative Western blot analysis and the mean ± SD of 3 quantifications are shown. **, p < 0.01.
The bronchial epithelial CFBE41o- cells were cultured as in [20]. […] The proteins were subsequently transferred to nitrocellulose membranes and the expression of the total or acetylated α-tubulin was detected using the following primary antibodies: anti-α-tubulin (rabbit polyclonal, #2125, Cell Signalling Technology, Danvers, MA, USA) and anti-acetylated α-tubulin (rabbit polyclonal, #5335, Cell Signalling Technology). Following incubation with the appropriate secondary antibodies and Amersham ECL detection (Cytiva, Milano, Italy), the band intensity was quantified using the ChemiDoc imaging system (Bio-Rad, Milan, Italy). α-tubulin acetylation was normalized to the total α-tubulin levels.

T2 sequence (P0DMV8 whole entry): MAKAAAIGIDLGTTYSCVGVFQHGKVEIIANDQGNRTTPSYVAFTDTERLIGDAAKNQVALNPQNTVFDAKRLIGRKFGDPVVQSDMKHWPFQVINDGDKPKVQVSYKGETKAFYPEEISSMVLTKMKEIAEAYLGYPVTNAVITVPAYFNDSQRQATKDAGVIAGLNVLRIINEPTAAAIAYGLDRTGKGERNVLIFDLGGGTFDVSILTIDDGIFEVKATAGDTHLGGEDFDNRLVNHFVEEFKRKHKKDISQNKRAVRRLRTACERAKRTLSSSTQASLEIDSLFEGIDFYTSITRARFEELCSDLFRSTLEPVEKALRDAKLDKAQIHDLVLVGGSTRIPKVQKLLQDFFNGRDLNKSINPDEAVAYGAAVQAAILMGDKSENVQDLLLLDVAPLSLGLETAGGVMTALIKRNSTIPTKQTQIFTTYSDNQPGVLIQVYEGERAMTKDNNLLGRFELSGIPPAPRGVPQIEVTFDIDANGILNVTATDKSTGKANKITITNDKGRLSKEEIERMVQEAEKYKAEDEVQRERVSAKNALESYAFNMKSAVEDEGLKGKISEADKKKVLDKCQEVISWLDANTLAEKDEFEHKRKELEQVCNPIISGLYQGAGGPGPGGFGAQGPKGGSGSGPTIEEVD
SIRT6, sequence (Q8N6T7 whole entry): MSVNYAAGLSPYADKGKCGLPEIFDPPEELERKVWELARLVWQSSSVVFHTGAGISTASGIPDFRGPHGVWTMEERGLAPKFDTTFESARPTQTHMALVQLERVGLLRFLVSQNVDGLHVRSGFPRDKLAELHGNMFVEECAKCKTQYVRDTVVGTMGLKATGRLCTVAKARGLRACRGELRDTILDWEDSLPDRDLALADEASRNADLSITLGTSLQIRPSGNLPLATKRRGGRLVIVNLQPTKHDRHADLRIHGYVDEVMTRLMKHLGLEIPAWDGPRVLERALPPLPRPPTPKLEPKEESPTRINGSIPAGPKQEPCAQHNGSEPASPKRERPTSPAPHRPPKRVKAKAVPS

Row | inhibition at 150 µM (recombinant SIRT2) | inhibition at 300 µM (recombinant human HSP70) | IC50 (recombinant SIRT2) | SMILES | IC50 (SIRT2) | further results
1 | – | – | – | O=C(On1nnc2ccccc21)c1ccc[nH]1 [Compound 113] | 42.7 µM | –
2 | 76 ± 9% | 19 ± 1% | – | CSc1cccc(Nc2nc(-c3ccc4[nH]c(=O)sc4c3)cs2)c1 [Compound 5a] | – | –
3 | > 90% | 37 ± 1% | 27.3 ± 4.7 µM | O=C1Cc2cc(-c3csc(Nc4cccc(SC(F)(F)F)c4)n3)ccc2N1 [Compound 6a] | – | % Inhibition SIRT2 (at 150 μM) (recombinant SIRT2): 92 ± 7%
4 | > 90% | 40 ± 1% | 17.3 ± 2 µM | CCc1ccc(Nc2nc(-c3ccc(Cl)cc3)cs2)cc1SC [Compound 2a] | – | % Inhibition SIRT2 (at 150 μM) (recombinant SIRT2): 100 ± 9%
5 | 60 ± 8% | 44 ± 4% | – | CSc1cccc(Nc2nc(-c3cccc(Cl)c3)cs2)c1 [Compound 3a] | – | –
6 | > 90% | 47 ± 1% | 19.9 ± 2.1 µM | CCn1c(=O)/c(=C2\Sc3ccccc3N2C)s/c1=C\c1ccccn1 [Compound 7a, YM-08] | – | % Inhibition SIRT2 (at 150 μM) (recombinant SIRT2): 93 ± 9%
7 | 60 ± 5% | 20 ± 1% | – | CSc1cccc(Nc2nc(-c3ccc4c(c3)CC(=O)N4)cs2)c1 [Compound 4a] | – | –
8 | – | – | – | Cc1ccc2[nH]cc(C(=O)On3nnc4ccccc43)c2c1 [Compound 115] | 74 µM | –
9 | – | – | – | O=C(On1nnc2ncccc21)c1c[nH]c2ccc(Br)cc12 [Compound 116] | 77.1 µM | –
10 | – | – | – | O=C(On1nnc2ccccc21)c1cc[nH]c1 [Compound 112] | 56.6 µM | –

Row | SMILES | inhibition at 150 µM (recombinant SIRT2) | inhibition at 300 µM (recombinant human HSP70) | IC50 (recombinant SIRT2) | IC50 (SIRT2) | further results
11 | CSc1cccc(Nc2nc(-c3nc4ccccc4s3)cs2)c1 [Compound 1a] | 72 ± 8% | 49 ± 2% | 45.1 ± 5 µM | – | effect on SIRT6 deacetylase activity (SIRT6): did not significantly affect; selectivity over SIRT6 (SIRT6): selective over SIRT6; effect on SIRT6 depalmitoylase activity (SIRT6; palmitoylated peptide H3K9Palm): did not significantly affect; α-tubulin acetylation (acetylated normalized to total α-tubulin, vs vehicle) [1]: higher levels of the acetylated SIRT2 substrate; also recorded: increased α-tubulin acetylation
